Species on record: Rattus norvegicus
Assay: Open TG-GATES - Regimen: Single
Assay type: toxicity, organism-based, Sprague-Dawley
Set-up: regimen Single, gender Male, age 6 weeks
Conditions: in vivo, po, 0 mg/kg, route gavage, dose level Control; for APTT / Bas / Eos / Fbg / Hb / Ht / Lym / MCH / MCHC / MCV / Mono / Neu / PT / Plat / RBC / Ret / WBC: tissue Blood; for KIDNEY_L / KIDNEY_R / KIDNEY_TOTAL: tissue Kidney; for LIVER: tissue Liver; for A/G / ALP / ALT / AST / BUN / CRE / Ca / Cl / DBIL / GLC / IP / K / LDH / Na / PL / RALB / TBIL / TC / TG / TP / gamma-GTP: tissue Plasma

`CCC1(c2ccccc2)C(=O)NC(=O)NC1=O` [PHENOBARBITAL] showed a TERMINAL_BW (9 h) of 217.1 g, an APTT (9 h) of 19 s and a Bas (9 h) of 0.4%. It also gave an Eos (9 h) of 1.2%, a Fbg (9 h) of 223.8 mg/dL and a Hb (9 h) of 13.6 g/dL. The Ht (9 h) was 37.9%, the Lym (9 h) was 77% and the MCH (9 h) was 21.5 pg. The MCHC (9 h) was 36%, the MCV (9 h) was 59.8 fL and the Mono (9 h) was 2.8%. The Neu (9 h) was 18%, the PT (9 h) was 12.3 s and the Plat (9 h) was 127.9 x10_4/uL. For the same compound, the RBC (9 h) was 634.2 x10_4/ul, the Ret (9 h) was 7.7% and the WBC (9 h) was 93.6 x10_2/uL. It also gave a KIDNEY_L (9 h) of 1 g, a KIDNEY_R (9 h) of 1 g and a KIDNEY_TOTAL (9 h) of 2 g. For the same compound, the LIVER (9 h) was 9 g, the A/G (9 h) was 1.6 and the ALP (9 h) was 763.4 IU/L. The ALT (9 h) was 31.4 IU/L, the AST (9 h) was 63.6 IU/L and the BUN (9 h) was 9.4 mg/dL. The CRE (9 h) was 0.3 mg/dL, the Ca (9 h) was 10.6 mg/dL and the Cl (9 h) was 103.8 meq/L. It also gave a DBIL (9 h) of 0.062 mg/dL, a GLC (9 h) of 202 mg/dL and an IP (9 h) of 10.4 mg/dL. The K (9 h) was 3.9 meq/L, the LDH (9 h) was 122.2 IU/L and the Na (9 h) was 142.2 meq/L. For the same compound, the PL (9 h) was 129.8 mg/dL, the RALB (9 h) was 3.4 g/dL and the TBIL (9 h) was 0.1 mg/dL. It also gave a TC (9 h) of 70.6 mg/dL, a TG (9 h) of 35.4 mg/dL and a TP (9 h) of 5.4 g/dL. It also gave a gamma-GTP (9 h) of 1.2 IU/L, a TERMINAL_BW (24 h) of 234.1 g and an APTT (24 h) of 20.3 s. For the same compound, the Bas (24 h) was 0.6%, the Eos (24 h) was 1% and the Fbg (24 h) was 221.2 mg/dL. It also gave a Hb (24 h) of 13.4 g/dL, a Ht (24 h) of 37.5% and a Lym (24 h) of 77.6%. For the same compound, the MCH (24 h) was 21 pg, the MCHC (24 h) was 35.7% and the MCV (24 h) was 58.9 fL. It also gave a Mono (24 h) of 2.4%, a Neu (24 h) of 18% and a PT (24 h) of 11.7 s. It also gave a Plat (24 h) of 132.6 x10_4/uL, an RBC (24 h) of 637.2 x10_4/ul and a Ret (24 h) of 7.4%. The WBC (24 h) was 98.6 x10_2/uL, the KIDNEY_L (24 h) was 1.1 g and the KIDNEY_R (24 h) was 1.1 g. For the same compound, the KIDNEY_TOTAL (24 h) was 2.2 g, the LIVER (24 h) was 11.3 g and the A/G (24 h) was 1.6. The ALP (24 h) was 911.2 IU/L, the ALT (24 h) was 35.8 IU/L and the AST (24 h) was 70 IU/L. The BUN (24 h) was 16.2 mg/dL, the CRE (24 h) was 0.4 mg/dL and the Ca (24 h) was 10.8 mg/dL. The Cl (24 h) was 103.2 meq/L, the DBIL (24 h) was 0.062 mg/dL and the GLC (24 h) was 188.4 mg/dL. The IP (24 h) was 7.6 mg/dL, the K (24 h) was 4 meq/L and the LDH (24 h) was 171.8 IU/L. The Na (24 h) was 142 meq/L, the PL (24 h) was 143 mg/dL and the RALB (24 h) was 3.4 g/dL. The TBIL (24 h) was 0.1 mg/dL, the TC (24 h) was 72.2 mg/dL and the TG (24 h) was 77.4 mg/dL. For the same compound, the TP (24 h) was 5.6 g/dL and the gamma-GTP (24 h) was 1.4 IU/L.
